Values quoted from earlier work, collected in US12410207B2, “Galactoside inhibitor of galectins” (GALECTO BIOTECH AB, priority 2019, dated 2025).

Test system: galectins
Conditions: cited from earlier work

O=C[C@H](O)[C@@H](O)[C@@H](O)[C@H](O)CO [D-galactose]
affinity, times lower than lactose (relative to lactose): 50-100 times

OC[C@H]1O[C@@H](O[C@H]2[C@H](O)[C@@H](O)C(O)O[C@@H]2CO)[C@H](O)[C@@H](O)[C@H]1O (some centres unmarked) [lactose]
Kd (reviewed by Leffler 2001, Leffler et al. 2004, read-out: Kd, all galectins): 500 to 1000 µM
